According to PubChem BioAssay (NCI):
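48-hour exposure; five concentrations; linearly interpolated endpoints. Here, GI50 denotes the concentration required for 50% inhibition of growth. The concentration for full growth arrest is given as TGI.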

test system: UO-31 renal; experiment: inhibition of tumour cell growth, NCI panel, 48 h

Compared with O=S(O)CCCCSSCc1ccccc1CSSCCCCS(=O)O, O=C(CCC/C(CC(=O)c1ccc(Br)cc1)=N\O)Nc1ccccc1 is higher in TGI: 74.4 µM for the first, over 100 µM for the second.

O=C(Nc1ccc([N+](=O)[O-])cc1)C1C(=O)C(=O)N(c2ccc([N+](=O)[O-])cc2)C1=O (stereo not drawn) and O=C(/C=C/c1c(O)ccc2ccccc12)c1ccc2ccccc2c1 cannot be ordered by TGI: over 100 µM for the first, over 100 µM for the second.

Cc1cn2c(/C=C3/C(=O)Nc4ccccc43)c(-c3ccc(Cl)cc3)nc2s1 and O=C(CSc1nnc(-c2ccccc2NC(=O)C(F)(F)F)c(=O)[nH]1)NC(=O)Nc1ccccc1 cannot be ordered by TGI: over 50 µM for the first, over 100 µM for the second.

First: CCOC(=O)C1N(S(=O)(=O)c2ccc(C)cc2)CCC12C(c1ccc(OC)cc1)NC1CCCCC12 (stereo not drawn)
Second: CC(C)(C)C(=O)/C=C/c1ccc(Oc2ccccc2)cc1
The TGI of the first is higher: over 100 µM for the first, 54.3 µM for the second.

COC(=O)/C=C/C1C(C(=O)OC)C2(C(=O)OC)CCC1(C(=O)OC)N2 (stereo not drawn) and CCOC(=O)CCc1c(C)c2c(OC(C)=O)cc(OC(C)=O)cc2oc1=O cannot be ordered by TGI: over 100 µM for the first, over 100 µM for the second.

CC(C)(C)N1CC2(CCCCC2)C1=O and O=C(CN1CCCCC1)N1CCc2c([nH]c3ccccc23)C1c1cccnc1 (stereo not drawn) cannot be ordered by TGI: over 100 µM for the first, over 100 µM for the second.

COc1ccc(C(=O)C(CO)Oc2ccccc2OC)cc1OC (stereo not drawn) and O=C(/C=C/c1ccccc1)/C=C/c1ccccc1 cannot be ordered by TGI: over 100 µM for the first, over 100 µM for the second.

N#CC(/C(=N/NC(=O)C(=O)NN)C(=O)NC12CC3CC(CC(C3)C1)C2)c1ccccc1 (stereo not drawn) and N#C/C(=C\c1ccc(O)c(O)c1)C(N)=O cannot be ordered by TGI: over 100 µM for the first, over 100 µM for the second.

CN=NN(C)C(=O)NC and N#CC(C#N)=c1[nH]c2cccc3c2-c2c(cccc2c3=C(C#N)C#N)[nH]1 cannot be ordered by TGI: over 100 µM for the first, over 100 µM for the second.

With Cc1cn2c(/C=C3/C(=O)Nc4ccccc43)c(-c3ccc(Cl)cc3)nc2s1 the GI50 was 35.9 µM.

test system: 786-0 renal; experiment: inhibition of tumour cell growth, NCI panel, 48 h

O=S(O)CCCCSSCc1ccccc1CSSCCCCS(=O)O and O=C(CCC/C(CC(=O)c1ccc(Br)cc1)=N\O)Nc1ccccc1 cannot be ordered by TGI: over 100 µM for the first, over 100 µM for the second.

CCOC(=O)c1[nH]c(COC(C)=O)c(CCCOC(C)=O)c1CCCOC(C)=O and CCOC(=O)CCc1c(C)c2c(OC(C)=O)cc(OC(C)=O)cc2oc1=O cannot be ordered by TGI: over 100 µM for the first, over 100 µM for the second.

O=C(Nc1ccc([N+](=O)[O-])cc1)C1C(=O)C(=O)N(c2ccc([N+](=O)[O-])cc2)C1=O (stereo not drawn) and COc1ccccc1NC(=O)C1=C(C)NC(C)=C(C(=O)Nc2ccccc2OC)C1c1ccc([N+](=O)[O-])cc1 cannot be ordered by TGI: over 100 µM for the first, over 100 µM for the second.

First: Cc1cn2c(/C=C3/C(=O)Nc4ccccc43)c(-c3ccc(Cl)cc3)nc2s1
Second: O=C(CSc1nnc(-c2ccccc2NC(=O)C(F)(F)F)c(=O)[nH]1)NC(=O)Nc1ccccc1
The TGI of the first is lower: 13.6 µM for the first, over 100 µM for the second.

Going from O=C(/C=C/c1c(O)ccc2ccccc12)c1ccc2ccccc2c1 to O=C(/C=C/c1ccccc1)/C=C/c1ccccc1, the TGI falls from over 100 µM to 85.5 µM.

First: CCOC(=O)C1N(S(=O)(=O)c2ccc(C)cc2)CCC12C(c1ccc(OC)cc1)NC1CCCCC12 (stereo not drawn)
Second: CC(C)(C)C(=O)/C=C/c1ccc(Oc2ccccc2)cc1
The TGI of the first is higher: over 100 µM for the first, 40 µM for the second.

COC(=O)/C=C/C1C(C(=O)OC)C2(C(=O)OC)CCC1(C(=O)OC)N2 (stereo not drawn) and N#CC(/C(=N/NC(=O)C(=O)NN)C(=O)NC12CC3CC(CC(C3)C1)C2)c1ccccc1 (stereo not drawn) cannot be ordered by TGI: over 100 µM for the first, over 100 µM for the second.

CC(C)(C)N1CC2(CCCCC2)C1=O and O=C(CN1CCCCC1)N1CCc2c([nH]c3ccccc23)C1c1cccnc1 (stereo not drawn) cannot be ordered by TGI: over 100 µM for the first, over 100 µM for the second.

COc1ccc(C(=O)C(CO)Oc2ccccc2OC)cc1OC (stereo not drawn) and N#C/C(=C\c1ccc(O)c(O)c1)C(N)=O cannot be ordered by TGI: over 100 µM for the first, over 100 µM for the second.

CN=NN(C)C(=O)NC and N#CC(C#N)=c1[nH]c2cccc3c2-c2c(cccc2c3=C(C#N)C#N)[nH]1 cannot be ordered by TGI: over 100 µM for the first, over 100 µM for the second.

Cc1cn2c(/C=C3/C(=O)Nc4ccccc43)c(-c3ccc(Cl)cc3)nc2s1 showed a GI50 of 7.08 µM.

test system: U251 CNS; experiment: inhibition of tumour cell growth, NCI panel, 48 h

O=S(O)CCCCSSCc1ccccc1CSSCCCCS(=O)O and O=C(CCC/C(CC(=O)c1ccc(Br)cc1)=N\O)Nc1ccccc1 cannot be ordered by TGI: over 100 µM for the first, over 100 µM for the second.

CCOC(=O)c1[nH]c(COC(C)=O)c(CCCOC(C)=O)c1CCCOC(C)=O and CCOC(=O)CCc1c(C)c2c(OC(C)=O)cc(OC(C)=O)cc2oc1=O cannot be ordered by TGI: over 100 µM for the first, over 100 µM for the second.

O=C(Nc1ccc([N+](=O)[O-])cc1)C1C(=O)C(=O)N(c2ccc([N+](=O)[O-])cc2)C1=O (stereo not drawn) and COc1ccccc1NC(=O)C1=C(C)NC(C)=C(C(=O)Nc2ccccc2OC)C1c1ccc([N+](=O)[O-])cc1 cannot be ordered by TGI: over 100 µM for the first, over 100 µM for the second.

First: Cc1cn2c(/C=C3/C(=O)Nc4ccccc43)c(-c3ccc(Cl)cc3)nc2s1
Second: O=C(CSc1nnc(-c2ccccc2NC(=O)C(F)(F)F)c(=O)[nH]1)NC(=O)Nc1ccccc1
The TGI of the first is lower: 11.2 µM for the first, over 100 µM for the second.

Going from O=C(/C=C/c1c(O)ccc2ccccc12)c1ccc2ccccc2c1 to O=C(/C=C/c1ccccc1)/C=C/c1ccccc1, the TGI falls from over 100 µM to 43.5 µM.

First: CCOC(=O)C1N(S(=O)(=O)c2ccc(C)cc2)CCC12C(c1ccc(OC)cc1)NC1CCCCC12 (stereo not drawn)
Second: CC(C)(C)C(=O)/C=C/c1ccc(Oc2ccccc2)cc1
The TGI of the first is higher: over 100 µM for the first, 28.4 µM for the second.

COC(=O)/C=C/C1C(C(=O)OC)C2(C(=O)OC)CCC1(C(=O)OC)N2 (stereo not drawn) and N#CC(/C(=N/NC(=O)C(=O)NN)C(=O)NC12CC3CC(CC(C3)C1)C2)c1ccccc1 (stereo not drawn) cannot be ordered by TGI: over 100 µM for the first, over 100 µM for the second.

CC(C)(C)N1CC2(CCCCC2)C1=O and O=C(CN1CCCCC1)N1CCc2c([nH]c3ccccc23)C1c1cccnc1 (stereo not drawn) cannot be ordered by TGI: over 100 µM for the first, over 100 µM for the second.

COc1ccc(C(=O)C(CO)Oc2ccccc2OC)cc1OC (stereo not drawn) and N#C/C(=C\c1ccc(O)c(O)c1)C(N)=O cannot be ordered by TGI: over 100 µM for the first, over 100 µM for the second.

CN=NN(C)C(=O)NC and N#CC(C#N)=c1[nH]c2cccc3c2-c2c(cccc2c3=C(C#N)C#N)[nH]1 cannot be ordered by TGI: over 100 µM for the first, over 100 µM for the second.

Cc1cn2c(/C=C3/C(=O)Nc4ccccc43)c(-c3ccc(Cl)cc3)nc2s1 gave a GI50 of 5.31 µM.

test system: SK-MEL-2 melanoma; experiment: inhibition of tumour cell growth, NCI panel, 48 h

O=S(O)CCCCSSCc1ccccc1CSSCCCCS(=O)O and O=C(CCC/C(CC(=O)c1ccc(Br)cc1)=N\O)Nc1ccccc1 cannot be ordered by TGI: over 100 µM for the first, over 100 µM for the second.

First: CCOC(=O)c1[nH]c(COC(C)=O)c(CCCOC(C)=O)c1CCCOC(C)=O
Second: CCOC(=O)CCc1c(C)c2c(OC(C)=O)cc(OC(C)=O)cc2oc1=O
The TGI of the first is higher: over 100 µM for the first, 82.2 µM for the second.

O=C(Nc1ccc([N+](=O)[O-])cc1)C1C(=O)C(=O)N(c2ccc([N+](=O)[O-])cc2)C1=O (stereo not drawn) and COc1ccccc1NC(=O)C1=C(C)NC(C)=C(C(=O)Nc2ccccc2OC)C1c1ccc([N+](=O)[O-])cc1 cannot be ordered by TGI: over 100 µM for the first, over 100 µM for the second.

Cc1cn2c(/C=C3/C(=O)Nc4ccccc43)c(-c3ccc(Cl)cc3)nc2s1 and O=C(CSc1nnc(-c2ccccc2NC(=O)C(F)(F)F)c(=O)[nH]1)NC(=O)Nc1ccccc1 cannot be ordered by TGI: over 50 µM for the first, over 100 µM for the second.

O=C(/C=C/c1c(O)ccc2ccccc12)c1ccc2ccccc2c1 and O=C(/C=C/c1ccccc1)/C=C/c1ccccc1 cannot be ordered by TGI: over 100 µM for the first, over 100 µM for the second.

COC(=O)/C=C/C1C(C(=O)OC)C2(C(=O)OC)CCC1(C(=O)OC)N2 (stereo not drawn) and N#CC(/C(=N/NC(=O)C(=O)NN)C(=O)NC12CC3CC(CC(C3)C1)C2)c1ccccc1 (stereo not drawn) cannot be ordered by TGI: over 100 µM for the first, over 100 µM for the second.

Compared with CC(C)(C)N1CC2(CCCCC2)C1=O, CC(C)(C)C(=O)/C=C/c1ccc(Oc2ccccc2)cc1 is lower in TGI: over 100 µM for the first, 37.9 µM for the second.

COc1ccc(C(=O)C(CO)Oc2ccccc2OC)cc1OC (stereo not drawn) and N#C/C(=C\c1ccc(O)c(O)c1)C(N)=O cannot be ordered by TGI: over 100 µM for the first, over 100 µM for the second.

In the case of CN=NN(C)C(=O)NC, the TGI is reported as over 100 µM.

Compound Cc1cn2c(/C=C3/C(=O)Nc4ccccc43)c(-c3ccc(Cl)cc3)nc2s1 has a GI50 of 30.8 µM.

test system: NCI-H23 lung; experiment: inhibition of tumour cell growth, NCI panel, 48 h

First: O=S(O)CCCCSSCc1ccccc1CSSCCCCS(=O)O
Second: O=C(CCC/C(CC(=O)c1ccc(Br)cc1)=N\O)Nc1ccccc1
The TGI of the first is lower: 61.8 µM for the first, over 100 µM for the second.

CCOC(=O)c1[nH]c(COC(C)=O)c(CCCOC(C)=O)c1CCCOC(C)=O and O=C(Nc1ccc([N+](=O)[O-])cc1)C1C(=O)C(=O)N(c2ccc([N+](=O)[O-])cc2)C1=O (stereo not drawn) cannot be ordered by TGI: over 100 µM for the first, over 100 µM for the second.
